By IC50 is commonly meant the midpoint of a concentration-inhibition curve.

The values that follow come from patent publication US9828369B2, “Isoquinoline derivatives useful as inhibitors of diacylglyceride O-acyltransferase 2” (Merck Sharp & Dohme Corp., priority 2014, dated 2017).

Structures are written as SMILES.

In the assay the target is hDGAT2 (Homo sapiens (Human), UniProt Q96PD7). Put plainly: DGAT2 enzymatic activity assay (triolein formation, LC/MS/MS). The following applies: read-out: IC50 values for inhibition of DGAT2; membrane prep of Sf-9 cells expressing hDGAT2; 25 μM diolein, 10 μM oleoyl-CoA; room temperature; triolein by LC/MS/MS.
hDGAT2, sequence (Q96PD7 whole entry): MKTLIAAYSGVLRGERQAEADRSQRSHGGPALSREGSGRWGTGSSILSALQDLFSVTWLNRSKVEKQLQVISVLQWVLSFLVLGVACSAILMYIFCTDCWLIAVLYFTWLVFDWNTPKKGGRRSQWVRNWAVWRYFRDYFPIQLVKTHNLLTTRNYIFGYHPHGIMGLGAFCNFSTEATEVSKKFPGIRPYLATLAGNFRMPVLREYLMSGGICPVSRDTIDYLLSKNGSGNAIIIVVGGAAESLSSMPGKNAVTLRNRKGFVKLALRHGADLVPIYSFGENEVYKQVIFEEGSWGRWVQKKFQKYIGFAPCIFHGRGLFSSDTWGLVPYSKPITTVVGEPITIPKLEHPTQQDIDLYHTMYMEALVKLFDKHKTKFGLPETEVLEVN

`CCCc1cc(C(=O)NCc2ccc(-c3cccc(C(=O)OC)c3)c3ccncc23)n(C)n1` [Example 9, methyl 3-(8-((1-methyl-3-propyl-1H-pyrazole-5-carboxamido)methyl)isoquinolin-5-yl)benzoate]: the IC50 amounted to 132 nM.

For `COc1cccc(-c2ccc(CNC(=O)c3coc(-c4ccccc4)n3)c3cnccc23)c1` [Example 70, N-((5-(3-methoxyphenyl)isoquinolin-8-yl)methyl)-2-phenyloxazole-4-carboxamide], the IC50 turned out to be 2330 nM.

As for `COc1cccc(-c2ccc(CNC(=O)c3ccc(-c4ccccc4)o3)c3cnccc23)c1` [Example 83, N-((5-(3-methoxyphenyl)isoquinolin-8-yl)methyl)-5-phenylfuran-2-carboxamide], the IC50 is 1450 nM.

Turning to `COc1cccc(-c2ccc(CNC(=O)c3ccc(-c4ccon4)cc3)c3cnccc23)c1` [Example 76, 4-(isoxazol-3-yl)-N-((5-(3-methoxyphenyl)isoquinolin-8-yl)methyl)benzamide], the IC50 turned out to be 4460 nM.

Regarding `COc1cccc(-c2ccc(CNC(=O)C(C)c3ccc(-c4ccccc4)cc3)c3cnccc23)c1` (stereo not drawn) [Example 134, 2-([1,1′-biphenyl]-4-yl)-N-((5-(3-methoxyphenyl)isoquinolin-8-yl)methyl)propanamide], the IC50 was found to be 324 nM.

As for `COCc1cccc(-c2ccc(CNC(=O)C3CC3c3ccccc3)c3cnccc23)c1` (stereo not drawn) [Example 18, N-((5-(3-(methoxymethyl)phenyl)isoquinolin-8-yl)methyl)-2-phenylcyclopropanecarboxamide], the IC50 was determined as 278 nM.

With `CNC(=O)c1cccc(-c2ccc(CNC(=O)Nc3cccc(Cl)c3Cl)c3cnccc23)c1` [Example 161, 3-(8-((3-(2,3-dichlorophenyl)ureido)methyl)isoquinolin-5-yl)-N-methylbenzamide], the IC50 was 1210 nM.

Consider `COc1cccc(-c2ccc(CNC(=O)c3ccc(N4CCCCC4)cc3)c3cnccc23)c1` [Example 84, N-((5-(3-methoxyphenyl)isoquinolin-8-yl)methyl)-4-(piperidin-1-yl)benzamide], for which the IC50 worked out at 988 nM.

For the compound `COc1cccc(-c2ccc(CNC(=O)c3ccc(-c4ccc(F)cc4)cc3)c3cnccc23)c1` [Example 86, 4′-fluoro-N-((5-(3-methoxyphenyl)isoquinolin-8-yl)methyl)-[1,1′-biphenyl]-4-carboxamide], the IC50 turned out to be 1400 nM.

With `COc1cccc(-c2ccc(CNC(=O)c3cccc4ncccc34)c3cnccc23)c1` [Example 45, N-((5-(3-methoxyphenyl)isoquinolin-8-yl)methyl)quinoline-5-carboxamide], the IC50 turned out to be 745 nM.

As to `O=C(NCc1ccc(-c2cccc(OC(F)(F)F)c2)c2ccncc12)C1CC1c1ccccc1` (stereo not drawn) [Example 17, 2-phenyl-N-((5-(3-(trifluoromethoxy)phenyl)isoquinolin-8-yl)methyl)cyclopropanecarboxamide], the IC50 is 3760 nM.

As for `COc1cccc(-c2ccc(CNC(=O)C3CC3c3ccc(F)cc3)c3cnccc23)c1` (stereo not drawn) [Example 102, 2-(4-fluorophenyl)-N-((5-(3-methoxyphenyl)isoquinolin-8-yl)methyl)cyclopropanecarboxamide], the IC50 was found to be 178 nM.

In the case of `COC(=O)c1cccc(-c2ccc(CNC(=O)Cc3ccc(Oc4ccccc4)cc3)c3cnccc23)c1` [Example 6, methyl 3-(8-((2-(4-phenoxyphenyl)acetamido)methyl)isoquinolin-5-yl)benzoate], the IC50 was determined as 101 nM.

On to `CCOC(=O)c1cccc(-c2ccc(CNC(=O)C3CC3c3ccccc3)c3cnccc23)c1` (stereo not drawn) [Example 14, ethyl 3-(8-((2-phenylcyclopropanecarboxamido)methyl)isoquinolin-5-yl)benzoate], for which the IC50 is 71 nM.

`COc1cccc(-c2ccc(CNC(=O)C3CC3c3ccc(Cl)cc3)c3cnccc23)c1` (stereo not drawn) [Example 97, 2-(4-chlorophenyl)-N-((5-(3 methoxyphenyl)isoquinolin-8-yl)methyl)cyclopropanecarboxamide]: the IC50 was determined as 597 nM.

As for `CC(C)(C)OC(=O)N1CCC=C(c2ccc(CNC(=O)Nc3cccc(Cl)c3Cl)c3cnccc23)C1` [Example 165, tert-butyl 3-(8-((3-(2,3-dichlorophenyl)ureido)methyl)isoquinolin-5-yl)-5,6-dihydropyridine-1(2H)-carboxylate], the IC50 was found to be 4310 nM.

With `COc1cccc(-c2ccc(CNC(=O)Cc3ccc(Oc4ccccc4)cc3)c3cnccc23)c1` [Example 53, N-((5-(3-methoxyphenyl)isoquinolin-8-yl)methyl)-2-(4-phenoxyphenyl)acetamide], the IC50 was determined as 2160 nM.

Consider `COc1cccc(-c2ccc(CNC(=O)C3CC34CCCC4)c3cnccc23)c1` (stereo not drawn) [Example 98, N-((5-(3-methoxyphenyl)isoquinolin-8-yl)methyl)spiro[2.4]heptane-1-carboxamide], for which the half-inhibitory concentration (IC50) is 7400 nM.

In the case of `COc1ccc(C2CC2C(=O)NCc2ccc(-c3cccc(OC)c3)c3ccncc23)cc1` (stereo not drawn) [Example 106, 2-(4-methoxyphenyl)-N-((5-(3-methoxyphenyl)isoquinolin-8-yl)methyl)cyclopropanecarboxamide], the IC50 stood at 537 nM.

As for `COc1cccc(-c2ccc(CNC(=O)C3CC3c3cccc(OC)c3)c3cnccc23)c1` (stereo not drawn) [Example 107, 2-(3-methoxyphenyl)-N-((5-(3-methoxyphenyl)isoquinolin-8-yl)methyl)cyclopropanecarboxamide], the IC50 is 1180 nM.

On to `COc1cccc(-c2ccc(CNC(=O)c3ccn(C)n3)c3cnccc23)c1` [Example 154, N-((5-(3-methoxyphenyl)isoquinolin-8-yl)methyl)-1-methyl-1H-pyrazole-3-carboxamide], for which the IC50 amounted to 3270 nM.

In the case of `O=C(O)CCc1ccc(-c2ccc(CNC(=O)Nc3cccc(Cl)c3Cl)c3cnccc23)cc1` [Example 163, 3-(4-(8-((3-(2,3-dichlorophenyl)ureido)methyl)isoquinolin-5-yl)phenyl)propanoic acid], the IC50 is 2360 nM.

Turning to `COc1cccc(-c2ccc(CNC(=O)Cc3ccccc3F)c3cnccc23)c1` [Example 49, 2-(2-fluorophenyl)-N-((5-(3-methoxyphenyl)isoquinolin-8-yl)methyl)acetamide], the half-inhibitory concentration (IC50) worked out at 993 nM.

For the compound `COC(=O)c1cccc(-c2ccc(CNC(=O)Cc3ccc(C(F)(F)F)cc3)c3cnccc23)c1` [Example 2, methyl 3-(8-((2-(4-(trifluoromethyl)phenyl)acetamido)methyl)isoquinolin-5-yl)benzoate], the IC50 is 85.6 nM.

With `COc1cccc(-c2ccc(CNC(=O)c3cnccc3C(F)(F)F)c3cnccc23)c1` [Example 127, N-((5-(3-methoxyphenyl)isoquinolin-8-yl)methyl)-4-(trifluoromethyl)nicotinamide], the IC50 was found to be 1420 nM.

As for `COc1cccc(-c2ccc(CNC(=O)Cc3nc(-c4ccccc4)cs3)c3cnccc23)c1` [Example 89, N-((5-(3-methoxyphenyl)isoquinolin-8-yl)methyl)-2-(4-phenylthiazol-2-yl)acetamide], the IC50 came to 2230 nM.

Consider `COc1cc(OC)cc(-c2ccc(CNC(=O)Nc3cccc(Cl)c3Cl)c3cnccc23)c1` [Example 152, 1-(2,3-dichlorophenyl)-3-((5-(3,5-dimethoxyphenyl)isoquinolin-8-yl)methyl)urea], for which the IC50 was determined as 198 nM.
